Test results: US10472352B2, “Rac inhibitors” (Geneyus LLC, priority 2017, dated 2019)
Where two headings read alike, the source gives them in different places.

Tested on: BT474 breast cancer cells
Assay: BT474 Four (4) Day Cell Viability Assay
Format: cell-based
Details: Homo sapiens, BT-474, 96 h, BT474, 4 days, read-out: cellular viability; for viability at 7.5 µM: 32661 7.5 μM
Protocol: BT474 breast cancer cells that are Estrogen Receptor Positive and HER2+ were grown in 5% cFBS. 5,000 cells were seeded into each well of a 96-well plate and treated with escalating doses of lapatinib, fulvestrant, and 32661.

**Q.** How did the viability at 5 µM (32661 5 μM, fulvestrant 3333.0 nM, lapatinib 3333.0 nM) turn out when `FC(F)(F)c1ccc2c(SCCCCCCn3cnc(CN4CCOCC4)c3)ccnc2c1` [Compound 0032661, 4-[[1-[6-[[7-(trifluoromethyl)-4-quinolyl]sulfanyl]hexyl]imidazol-4-yl]methyl]morpholine] was run?
**A.** The viability at 5 µM was 1%.

**Q.** And the viability at 7.5 µM (fulvestrant 0.0 nM, lapatinib 0.0 nM)?
**A.** Its viability at 7.5 µM is 84%.

**Q.** And the viability at 7.5 µM (fulvestrant 0.0 nM, lapatinib 6.9 nM)?
**A.** Its viability at 7.5 µM is 76%.

**Q.** And the viability at 7.5 µM (fulvestrant 0.0 nM, lapatinib 20.6 nM)?
**A.** Its viability at 7.5 µM is 74%.

**Q.** What about the viability at 7.5 µM (fulvestrant 0.0 nM, lapatinib 61.7 nM) of the same compound?
**A.** The viability at 7.5 µM was 65%.

**Q.** And the viability at 7.5 µM (fulvestrant 0.0 nM, lapatinib 185.2 nM)?
**A.** Its viability at 7.5 µM is 50%.

**Q.** What about the viability at 7.5 µM (fulvestrant 0.0 nM, lapatinib 555.6 nM) of the same compound?
**A.** The viability at 7.5 µM was 30%.

**Q.** What about the viability at 7.5 µM (fulvestrant 0.0 nM, lapatinib 1666.7 nM) of the same compound?
**A.** Its viability at 7.5 µM is 14%.

**Q.** What about the viability at 7.5 µM (fulvestrant 0.0 nM, lapatinib 3333.0 nM) of the same compound?
**A.** The viability at 7.5 µM was 12%.

**Q.** And the viability at 7.5 µM (fulvestrant 6.9 nM, lapatinib 0.0 nM)?
**A.** The viability at 7.5 µM was 81%.

**Q.** And the viability at 7.5 µM (fulvestrant 6.9 nM, lapatinib 6.9 nM)?
**A.** The viability at 7.5 µM was 72%.

**Q.** What about the viability at 7.5 µM (fulvestrant 6.9 nM, lapatinib 20.6 nM) of the same compound?
**A.** The viability at 7.5 µM was 71%.

**Q.** And the viability at 7.5 µM (fulvestrant 6.9 nM, lapatinib 61.7 nM)?
**A.** Its viability at 7.5 µM is 64%.

**Q.** And the viability at 7.5 µM (fulvestrant 6.9 nM, lapatinib 185.2 nM)?
**A.** The viability at 7.5 µM was 52%.

**Q.** What about the viability at 7.5 µM (fulvestrant 6.9 nM, lapatinib 555.6 nM) of the same compound?
**A.** The viability at 7.5 µM was 27%.

**Q.** And the viability at 7.5 µM (fulvestrant 6.9 nM, lapatinib 1666.7 nM)?
**A.** Its viability at 7.5 µM is 12%.

**Q.** What about the viability at 7.5 µM (fulvestrant 6.9 nM, lapatinib 3333.0 nM) of the same compound?
**A.** Its viability at 7.5 µM is 9%.

**Q.** What about the viability at 7.5 µM (fulvestrant 20.6 nM, lapatinib 0.0 nM) of the same compound?
**A.** The viability at 7.5 µM was 75%.

**Q.** And the viability at 7.5 µM (fulvestrant 20.6 nM, lapatinib 6.9 nM)?
**A.** The viability at 7.5 µM was 73%.

**Q.** What about the viability at 7.5 µM (fulvestrant 20.6 nM, lapatinib 20.6 nM) of the same compound?
**A.** The viability at 7.5 µM was 67%.

**Q.** What about the viability at 7.5 µM (fulvestrant 20.6 nM, lapatinib 61.7 nM) of the same compound?
**A.** The viability at 7.5 µM was 62%.

**Q.** What about the viability at 7.5 µM (fulvestrant 20.6 nM, lapatinib 185.2 nM) of the same compound?
**A.** Its viability at 7.5 µM is 50%.

**Q.** And the viability at 7.5 µM (fulvestrant 20.6 nM, lapatinib 555.6 nM)?
**A.** The viability at 7.5 µM was 23%.

**Q.** What about the viability at 7.5 µM (fulvestrant 20.6 nM, lapatinib 1666.7 nM) of the same compound?
**A.** Its viability at 7.5 µM is 12%.

**Q.** And the viability at 7.5 µM (fulvestrant 20.6 nM, lapatinib 3333.0 nM)?
**A.** The viability at 7.5 µM was 4%.

**Q.** What about the viability at 7.5 µM (fulvestrant 61.7 nM, lapatinib 0.0 nM) of the same compound?
**A.** The viability at 7.5 µM was 76%.

**Q.** And the viability at 7.5 µM (fulvestrant 61.7 nM, lapatinib 6.9 nM)?
**A.** Its viability at 7.5 µM is 66%.

**Q.** What about the viability at 7.5 µM (fulvestrant 61.7 nM, lapatinib 20.6 nM) of the same compound?
**A.** The viability at 7.5 µM was 61%.

**Q.** What about the viability at 7.5 µM (fulvestrant 61.7 nM, lapatinib 61.7 nM) of the same compound?
**A.** Its viability at 7.5 µM is 58%.

**Q.** What about the viability at 7.5 µM (fulvestrant 61.7 nM, lapatinib 185.2 nM) of the same compound?
**A.** The viability at 7.5 µM was 52%.

**Q.** And the viability at 7.5 µM (fulvestrant 61.7 nM, lapatinib 555.6 nM)?
**A.** The viability at 7.5 µM was 24%.

**Q.** What about the viability at 7.5 µM (fulvestrant 61.7 nM, lapatinib 1666.7 nM) of the same compound?
**A.** Its viability at 7.5 µM is 12%.

**Q.** What about the viability at 7.5 µM (fulvestrant 61.7 nM, lapatinib 3333.0 nM) of the same compound?
**A.** Its viability at 7.5 µM is 4%.

**Q.** And the viability at 7.5 µM (fulvestrant 185.2 nM, lapatinib 0.0 nM)?
**A.** The viability at 7.5 µM was 74%.

**Q.** What about the viability at 7.5 µM (fulvestrant 185.2 nM, lapatinib 6.9 nM) of the same compound?
**A.** Its viability at 7.5 µM is 64%.

**Q.** And the viability at 7.5 µM (fulvestrant 185.2 nM, lapatinib 20.6 nM)?
**A.** The viability at 7.5 µM was 61%.

**Q.** And the viability at 7.5 µM (fulvestrant 185.2 nM, lapatinib 61.7 nM)?
**A.** Its viability at 7.5 µM is 54%.

**Q.** What about the viability at 7.5 µM (fulvestrant 185.2 nM, lapatinib 185.2 nM) of the same compound?
**A.** The viability at 7.5 µM was 48%.

**Q.** What about the viability at 7.5 µM (fulvestrant 185.2 nM, lapatinib 555.6 nM) of the same compound?
**A.** Its viability at 7.5 µM is 24%.

**Q.** What about the viability at 7.5 µM (fulvestrant 185.2 nM, lapatinib 1666.7 nM) of the same compound?
**A.** The viability at 7.5 µM was 10%.

**Q.** What about the viability at 7.5 µM (fulvestrant 185.2 nM, lapatinib 3333.0 nM) of the same compound?
**A.** Its viability at 7.5 µM is 5%.

**Q.** And the viability at 7.5 µM (fulvestrant 555.6 nM, lapatinib 0.0 nM)?
**A.** Its viability at 7.5 µM is 76%.

**Q.** And the viability at 7.5 µM (fulvestrant 555.6 nM, lapatinib 6.9 nM)?
**A.** Its viability at 7.5 µM is 59%.

**Q.** What about the viability at 7.5 µM (fulvestrant 555.6 nM, lapatinib 20.6 nM) of the same compound?
**A.** The viability at 7.5 µM was 52%.

**Q.** What about the viability at 7.5 µM (fulvestrant 555.6 nM, lapatinib 61.7 nM) of the same compound?
**A.** Its viability at 7.5 µM is 45%.

**Q.** And the viability at 7.5 µM (fulvestrant 555.6 nM, lapatinib 185.2 nM)?
**A.** The viability at 7.5 µM was 38%.

**Q.** And the viability at 7.5 µM (fulvestrant 555.6 nM, lapatinib 555.6 nM)?
**A.** The viability at 7.5 µM was 19%.

**Q.** What about the viability at 7.5 µM (fulvestrant 555.6 nM, lapatinib 1666.7 nM) of the same compound?
**A.** The viability at 7.5 µM was 3%.

**Q.** What about the viability at 7.5 µM (fulvestrant 555.6 nM, lapatinib 3333.0 nM) of the same compound?
**A.** Its viability at 7.5 µM is 1%.

**Q.** What about the viability at 7.5 µM (fulvestrant 1666.7 nM, lapatinib 0.0 nM) of the same compound?
**A.** Its viability at 7.5 µM is 69%.

**Q.** And the viability at 7.5 µM (fulvestrant 1666.7 nM, lapatinib 6.9 nM)?
**A.** The viability at 7.5 µM was 35%.

**Q.** What about the viability at 7.5 µM (fulvestrant 1666.7 nM, lapatinib 20.6 nM) of the same compound?
**A.** Its viability at 7.5 µM is 28%.

**Q.** What about the viability at 7.5 µM (fulvestrant 1666.7 nM, lapatinib 61.7 nM) of the same compound?
**A.** The viability at 7.5 µM was 25%.

**Q.** What about the viability at 7.5 µM (fulvestrant 1666.7 nM, lapatinib 185.2 nM) of the same compound?
**A.** The viability at 7.5 µM was 21%.

**Q.** And the viability at 7.5 µM (fulvestrant 1666.7 nM, lapatinib 555.6 nM)?
**A.** The viability at 7.5 µM was 12%.

**Q.** What about the viability at 7.5 µM (fulvestrant 1666.7 nM, lapatinib 1666.7 nM) of the same compound?
**A.** The viability at 7.5 µM was 2%.

**Q.** And the viability at 7.5 µM (fulvestrant 1666.7 nM, lapatinib 3333.0 nM)?
**A.** Its viability at 7.5 µM is 0%.

**Q.** And the viability at 7.5 µM (fulvestrant 3333.0 nM, lapatinib 0.0 nM)?
**A.** The viability at 7.5 µM was 49%.

**Q.** And the viability at 7.5 µM (fulvestrant 3333.0 nM, lapatinib 6.9 nM)?
**A.** Its viability at 7.5 µM is 16%.

**Q.** What about the viability at 7.5 µM (fulvestrant 3333.0 nM, lapatinib 20.6 nM) of the same compound?
**A.** The viability at 7.5 µM was 13%.

**Q.** What about the viability at 7.5 µM (fulvestrant 3333.0 nM, lapatinib 61.7 nM) of the same compound?
**A.** The viability at 7.5 µM was 11%.

**Q.** And the viability at 7.5 µM (fulvestrant 3333.0 nM, lapatinib 185.2 nM)?
**A.** The viability at 7.5 µM was 7%.

**Q.** And the viability at 7.5 µM (fulvestrant 3333.0 nM, lapatinib 555.6 nM)?
**A.** The viability at 7.5 µM was 2%.

**Q.** And the viability at 7.5 µM (fulvestrant 3333.0 nM, lapatinib 1666.7 nM)?
**A.** Its viability at 7.5 µM is 3%.
